The text below walks through data of US8710088B2, “Pharmaceutical and diagnostic compositions for use in the treatment and diagnosis of neurodegenerative diseases or amyloid diseases” (Max-Delbruck-Centrum fur Molekulare Medizin, priority 2004, dated 2014).

The target of data set [1] is T1, mutant huntingtin (GST fusion protein GST-HDQ51) (Homo sapiens, UniProt P42858, INS38QQQQQQQQQQQQQQQQQQQQQQQQQQQQQQ).
T1 construct: GST (N)
Description: in vitro amyloid fibril formation of huntingtin, electron microscopy. The data set is classed as biochemical. The protocol: (§1) As in the tests described by Heiser et al. (2002), the protein was used for aggregation tests to which either only solvent or solvent and the chemical agent in question was added. Aliquots of these batches were examined by means of the membrane filter test and electron microscopy.
(§2) As in the tests described by Heiser et al. (2002), the protein was used for aggregation tests to which either only solvent or solvent and 7-amino-8-(2,4-dihydroxy-6-methyl-phenyl)-1,9-dimethyl-phenoxazine-3-one was added. Aliquots of these batches were examined by means of the membrane filter test (FIG. 1B) and electron microscopy (FIGS. 1E and 1F).

In another data set the target is T2, wild type Aβ1-42 (Homo sapiens, UniProt P05067).
T2 construct: non-mutated (wild type) Aβ1-42
T2 sequence (P05067 672-713 limits assumed): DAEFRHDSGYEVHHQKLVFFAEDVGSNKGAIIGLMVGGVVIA
The data set can be described thus: aggregation assay with wild type Aβ1-42, membrane filter method. The data set is classed as biochemical. As to conditions: peptide 15 μM, pH 7.4, 42 h, 37° C. The protocol:
(§3) Analogously, the compounds were also examined in aggregation assays with the amyloid β-peptide Aβ1-42(E22Q), which is a particularly rapidly aggregating variant of amyloid β, as well as with non-mutated (wild type) Aβ1-42. For this purpose, the peptide was incubated at a concentration of 15 μM in a phosphate buffer with a physiological pH value of 7.4 for 42 h at 37° C. and subsequently, aliquots were examined by means of the membrane filter method (Figure) or electron microscopy (Figures) as well. […] Cell viability measurements were carried out in neuronally differentiated PC12 cells to which beta-amyloid and the substances to be tested were added extracellularly in order to examine whether the compounds are able to reduce toxicity caused by amyloid-beta. After 48 h the viability of the cells (approximately corresponds to the number of vital cells) was measured.

Data set [2] has as its system neuronally differentiated PC12 cells. Description: toxicity of extracellular Aβ1-42 in neuronally differentiated PC12 cells, MTT test. The data set is classed as cell-based. The conditions noted are these: 48 h. The protocol:
as §3

For a further data set, the system named is caspases-3/-7. The data set can be described thus: caspase activity in the COS1 model of Huntington's chorea, fluorogenic substrate. It counts as cell-based. As to conditions: fluorometric. The procedure:
In addition, it was examined in this cell culture model of Huntington's chorea whether the substances tested substances can cause cell damage by initiating apoptotic processes. For this purpose, the activity of two caspases (caspases-3/-7) was determined fluorometrically after addition of a fluorogenic substrate.
In addition, it was examined in this cell culture model of Huntington's chorea whether 7-amino-8-(2,4-dihydroxy-6-methyl-phenyl)-1,9-dimethyl-phenoxazine-3-one can cause cell damage by initiating apoptotic processes. For this purpose, the activity of two caspases (caspases 3 and 7) was determined fluorometrically after addition of a fluorogenic substrate.

The next data set has as its system COS1 cells. Description: total amount of protein in the cell lysate (toxicity) in the COS1 model. It counts as cell-based. The protocol: (§4) The compounds were then tested in several cell culture models of polyglutamine diseases, inter alia Huntington's chorea. For this purpose, COS1 cells were transiently transfected with the plasmid pTL1-CAG51 already described above (Sittler, A., Walter, S., Wedemeyer, N., Hasenbank, R., Scherzinger, E., Eickhoff, H., Bates, G. P., Lehrach, H. and Wanker, E. E. (1998) Mol Cell 2, 427-36) and cultivated for 44 h in the presence of solvents or the chemical agents. Subsequently, the amount of aggregate was determined with the help of the membrane filter test as described by Heiser et al. (2002). […] The latter could be deduced from the total amount of protein in the cell lysate (FIG. 2B) which was determined with the help of cell extracts.
7-Amino-8-(2,4-dihydroxy-6-methyl-phenyl)-1,9-dimethyl-phenoxazine-3-one was then tested in a cell culture model of Huntington's chorea. […] Subsequently, the amount of aggregate was determined with the help of the membrane filter test as described by Heiser et al. (2002). […] The latter could be deduced from the total amount of protein (FIG. 2B) which was determined with the help of cell extracts.

For data set [3], the target named is T3, amyloid β-peptide Aβ1-42[E22Q] (Homo sapiens, UniProt P05067, E693Q).
T3 construct: the amyloid β-peptide Aβ1-42[E22Q]
T3 sequence (P05067 672-713 E693Q): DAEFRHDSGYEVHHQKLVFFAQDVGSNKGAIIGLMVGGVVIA
The data set can be described thus: aggregation assay with Aβ1-42[E22Q], membrane filter method or electron microscopy. The data set is classed as biochemical. As to conditions: 15 μM peptide, pH 7.4, 42 h, 37° C. The protocol:
as §3
Analogously, the compound was also examined in aggregation assays with the amyloid β-peptide Aβ1-42[E22Q] which is a particularly rapidly aggregating variant of amyloid β. For this purpose, the peptide was incubated at a concentration of 15 μM in a phosphate buffer with a physiological pH value of 7.4 for 42 h at 37° C. and subsequently, aliquots were examined by means of the membrane filter method (FIG. 1A) or electron microscopy (FIGS. 1C and 1D) as well.

Data set [4] addresses T1, mutant huntingtin (GST fusion protein GST-HDQ51). Description: in vitro aggregation of mutant huntingtin, membrane filter test. The conditions noted are these: membrane filter method. The data set is classed as biochemical. The procedure:
as §1, §2

The target of a further data set is T4, huntingtin (Homo sapiens, UniProt P42858, INS38QQQQQQQQQQQQQQQQQQQQQQQQQQQQQQ).
T4 construct: expressed in transfected cells; host or cells: COS1 cells, transient transfection
T4 sequence (P42858 with tags, fused parts or gaps with the stated changes limits assumed): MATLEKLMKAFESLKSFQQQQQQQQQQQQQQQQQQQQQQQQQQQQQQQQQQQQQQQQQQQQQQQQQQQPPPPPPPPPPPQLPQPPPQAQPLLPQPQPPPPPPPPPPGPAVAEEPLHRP
Description: cell culture model of Huntington's chorea: COS1 cells transfected with pTL1-CAG51, membrane filter test. The conditions noted are these: 40-44 h, membrane filter method. The data set is classed as cell-based. The protocol: as §4
7-Amino-8-(2,4-dihydroxy-6-methyl-phenyl)-1,9-dimethyl-phenoxazine-3-one was then tested in a cell culture model of Huntington's chorea. For this purpose, COS1 cells were transiently transfected with the plasmid pTL1-CAG51 already described above (Sittler, A., Walter, S., Wedemeyer, N., Hasenbank, R., Scherzinger, E., Eickhoff, H., Bates, G. P., Lehrach, H. and Wanker, E. E. (1998) Mol Cell 2, 427-36) and cultivated for 40-44 h in the presence of solvents or 7-amino-8-(2,4-dihydroxy-6-methyl-phenyl)-1,9-dimethyl-phenoxazine-3-one. Subsequently, the amount of aggregate was determined with the help of the membrane filter test as described by Heiser et al. (2002). […] The latter could be deduced from the total amount of protein (FIG. 2B) which was determined with the help of cell extracts.

Another data set relates to alpha-synuclein. The data set can be described thus: alpha-synuclein amyloid fibril formation, electron microscopy. It counts as biochemical. As to conditions: wild type protein or mutant (A53T). The source says:
For this purpose, the wild type protein or a mutant (A53T) was used.

For another data set, the system named is neuroblastoma cells. As to conditions: neuroblastoma cells damaged with amyloid β-peptide; cited from earlier work.
The test system of data set [5] is ataxin-3 deletion construct (aa 221-360) with 71 glutamines. Description: ataxin-3 aggregation in COS-1 cells, filtration method. It counts as cell-based. As to conditions: 40 h, membrane filter method. The procedure: For some compounds, a positive effect could be observed in another cell culture model of Huntington's chorea and a cell culture model of spinocerebellar ataxia (type 3). A test system based on the aggregation of an N-terminal ataxin-3 deletion construct (aa 221-360) with 71 glutamines in COS-1 cells was developed to isolate substances inhibiting the ataxin-3 aggregation. The cells were transiently transfected with the ataxin-3 expression construct and incubated in plates with 96 perforations with the added substance at 37° C. in an incubator. After 40 h the cells were harvested and lysated. The lysates were denatured in the presence of 2% SDS and analyzed using the filtration method.

The next data set deals with amyloid-beta fibrils (Homo sapiens, UniProt P05067). The data set can be described thus: binding to amyloid-beta aggregates located on a cellulose acetate membrane. The conditions noted are these: colored substances. The source says:
FIG. 16: Binding to amyloid-beta aggregates located on a cellulose acetate membrane

T1 sequence (P42858 with tags, fused parts or gaps with the stated changes limits assumed): as above
Chain of amyloid-beta fibrils (P05067 672-713 limits assumed): as the sequence (P05067 672-713 limits assumed) above

Regarding `c1cc2c3c(cccc3c1)NC(c1ccncc1)N2` [2-pyridine-4-yl-2,3-dihydro-1H-perimidine], the “Inhibition of the amyloid fibril formation of huntingtin (Exon-1)” value in [1] is listed as “Inhibition of the amyloid fibril formation”.

Consider `Nc1cccc(C2=Nc3cccc4cccc(c34)N2)c1` [3-(1H-perimidine-2-yl)-phenylamine], for which the “Inhibition of the aggregation of wild type Aβ1-42 (SDS-insoluble aggregates)” value on wild type Aβ1-42 was “Inhibition of the aggregation”. Further, the “Inhibition of toxicity of extracellular wild type Aβ1-42” value in data set [2] is reported as “Inhibition of toxicity”.

Consider `Cc1cc(=O)cc2oc3cc(N)c(-c4c(C)cc(O)cc4O)c(C)c3nc1-2` [7-amino-8-(2,4-dihydroxy-6-methyl-phenyl)-1,9-dimethyl-phenoxazine-3-one], for which the “caspase activity (caspases 3 and 7)” value in the data set on caspases-3/-7 is “caspase activity was reduced”. Also, the “increase of total protein content” value with COS1 cells (COS1 cells cultivated in presence of compound) is reported as around 20%. The “toxic effect, deduced from total amount of protein” value with COS1 cells (COS1 cells, at the concentrations used) is listed as “without having a toxic effect”. In addition, the “Inhibition of the aggregation of amyloid β-peptide Aβ1-42[E22Q]” value in data set [3] was “effectively inhibits the aggregation”. For the same compound, the “Inhibition of the aggregation of huntingtin (Exon-1) (SDS-insoluble aggregates)” value (“Inhibition … (Exon-1) (SDS-insoluble aggregates)” below) in data set [4] was “aggregation inhibiting effect”. Also, the “Inhibition of the aggregation of huntingtin in mammalian cells” value at huntingtin is listed as “aggregation inhibiting influence”. For the same compound, the “Inhibition of the amyloid fibril formation of huntingtin (Exon-1)” value in data set [1] was “aggregation inhibiting effect”.

Turning to `Oc1cc(O)c2c(c1)O[C@H](c1cc(O)c(O)c(O)c1)[C@H](O)C2` [EGC, (−)-Epigallocatechin], the “Inhibition of the aggregation of alpha-synuclein (amyloid fibrils)” value (from here on “Inhibition … (amyloid fibrils)”) in the data set on alpha-synuclein is recorded as “Inhibition of the aggregation”. Besides, the “Inhibition … (Exon-1) (SDS-insoluble aggregates)” value in data set [4] is reported as “Inhibition of the aggregation”.

`O=C(O[C@@H]1Cc2c(O)cc(O)cc2O[C@@H]1c1cc(O)c(O)c(O)c1)c1cc(O)c(O)c(O)c1` [EGCG, (−)-Epigallocatechin gallate]: the neuroprotective effect entry in the data set on neuroblastoma cells is given as “neuroprotective effect”. Also, the “Inhibition … (amyloid fibrils)” value with alpha-synuclein was “Inhibition of the aggregation”.

As for `Oc1cc(O)c2c(c1)O[C@@H](c1cc(O)c(O)c(O)c1)[C@H](O)C2` [GC, (−)-Gallocatechin], in the data set on alpha-synuclein, the “Inhibition … (amyloid fibrils)” value is recorded as “Inhibition of the aggregation”. The “Inhibition … (Exon-1) (SDS-insoluble aggregates)” value in data set [4] is given as “Inhibition of the aggregation”.

Regarding `O=C(O[C@@H]1Cc2c(O)cc(O)cc2O[C@H]1c1cc(O)c(O)c(O)c1)c1cc(O)c(O)c(O)c1` [GCG, (−)-Gallocatechin gallate], in the data set on alpha-synuclein, the “Inhibition … (amyloid fibrils)” value was “Inhibition of the aggregation”.

Consider `CC(=O)N1CCN(c2ccc(OC(=O)Cc3cccs3)cc2)CC1` [Thiophene-2-yl-acetic acid 4-(4-acetyl-piperazine-1-yl)-phenyl ester], for which the “Inhibition of the aggregation of ataxin-3 in mammalian cells” value in data set [5] is recorded as “Inhibition of the aggregation”. The “Inhibition of the aggregation of huntingtin in mammalian cells” value on huntingtin is recorded as “Inhibition of the aggregation”.

On to alpha-amino-orcein, for which, at wild type Aβ1-42, the “Inhibition of the aggregation of wild type Aβ1-42 (SDS-insoluble aggregates)” value is on record as “Inhibition of the aggregation”. Moreover, the “direct binding to amyloid-beta fibrils” value at amyloid-beta fibrils was “bind directly to amyloid-beta fibrils”. In addition, the “Inhibition of the aggregation of huntingtin in mammalian cells” value at huntingtin was “Inhibition of the aggregation”. In [2], the “Inhibition of toxicity of extracellular wild type Aβ1-42” value is “Inhibition of the toxicity”.
